Legend:
RhoB promoter [1] = assay: RhoB promoter transcriptional activity in H-Ras/3T3 cells; format: cell-based; settings: treated 12 hours (FIG. 6B)
From the text: The cell lysates were processed as in FIGS. 5A-5D. […] The cell lysates were processed as in FIGS. 5A-5D. […] The cell lysates were processed as in FIGS. 5A-5D. Gene Constructs and RhoB Promoter Transcriptional Activity Assay. Constitutively active H-Ras61L, K-RasV12, N-RasV12, and dominant negative […]-Ras were kind gifts from Dr. Channing Der (University of North Carolina) (Khosravi-Far, R. et al., Mol Cell Biol, 1995, 15:6443-53; Quilliam, L. A. et al., Mol Cell Biol, 1994, 14:1113-21). Wild-type RhoA and RhoB were subcloned into hemaglutinin (HA)-tagged pcDNA3 (INVITROGEN). The orientation and the sequences of these genes were confirmed by DNA sequencing facilities at the H. Lee Moffitt Cancer Center, Tampa, Fla. RhoB promoter construct pGEI was kindly provided by Dr Y. Monden (Banyu Tsukuba Research, Japan) (Nakamura et al., 1996). pCMV-β-galactosidase vector was purchased from INVITROGEN. The plasmid containing CA-, DN-PI3K, Mek and Akt were kindly provided by Dr. Julie Y. Djeu (H. Lee Moffitt Cancer and Research Institute, Tampa, Fla.) (Jiang, K. et al., Blood, 2003, 101:236-44). β-galactosidase activity and luciferase assay kits were purchased from PROMEGA Corporation, Madison, Wis. […] The RhoB promoter transcriptional activity was determined by dividing the luciferase/β-Gal values from oncogene-transfected cells by those from pcDNA3-transfected cells. […]

RhoB promoter [2] = assay: RhoB promoter transcriptional activity (luciferase reporter) in human cancer cell lines A-549, Panc-1, C33A; format: cell-based; settings: for RhoB Promoter transcriptional activity (% inhibition): vs pcDNA3 control
From the text: Gene Constructs and RhoB Promoter Transcriptional Activity Assay. Constitutively active H-Ras61L, K-RasV12, N-RasV12, and dominant negative […]-Ras were kind gifts from Dr. Channing Der (University of North Carolina) (Khosravi-Far, R. et al., Mol Cell Biol, 1995, 15:6443-53; Quilliam, L. A. et al., Mol Cell Biol, 1994, 14:1113-21). Wild-type RhoA and RhoB were subcloned into hemaglutinin (HA)-tagged pcDNA3 (INVITROGEN). The orientation and the sequences of these genes were confirmed by DNA sequencing facilities at the H. Lee Moffitt Cancer Center, Tampa, Fla. RhoB promoter construct pGEI was kindly provided by Dr Y. Monden (Banyu Tsukuba Research, Japan) (Nakamura et al., 1996). pCMV-β-galactosidase vector was purchased from INVITROGEN. The plasmid containing CA-, DN-PI3K, Mek and Akt were kindly provided by Dr. Julie Y. Djeu (H. Lee Moffitt Cancer and Research Institute, Tampa, Fla.) (Jiang, K. et al., Blood, 2003, 101:236-44). β-galactosidase activity and luciferase assay kits were purchased from PROMEGA Corporation, Madison, Wis. The serum response element (SRE) reporter was provided by Dr. Richard Jove, H. Lee Moffitt Cancer and Research Institute, Tampa, Fla. […] Richard Jove, Oncology program, H. Lee Moffitt Cancer and Research Institute, Tampa, Fla. […] Human EGFR, ErbB2 cDNA construct were kindly provided by Dr. Noreen Luetteke, H. Lee Moffitt Cancer and Research Institute, Tampa, Fla. (Luetteke, N. C. et al., Genes Dev, 1994, 8:399-413). DNA transfection was performed with the standard lipofectamine protocol (INVITROGEN). Briefly, cells were plated in 60-mm plates, pGEI plasmid was used at 2 μg per plate, whereas all the other plasmids were used at 0.1-1.0 μg per plate. After transfection the cells were grown for another 36-48 h. Cells were then washed twice with PBS and lyzed in Promega Passive Lysis Buffer. Aliquots of the lysates were then used to measure the luciferase and β-galactosidase activities. The luciferase values were first divided by β-galactosidase values. The RhoB promoter transcriptional activity was determined by dividing the luciferase/β-Gal values from oncogene-transfected cells by those from pcDNA3-transfected cells. […] All the samples were performed in triplicate and the averages of 3 independent experiments were reported here. Proteins that induce malignant transformation and those that suppress tumorigenesis most likely antagonize each other's functions. […] Du, W. et al., Mol Cell Biol, 1999, 19:1831-40; Du, W. and Prendergast, G. C., Cancer Res, 1999, 59:5492-6). An objective of the experiments described herein was to determine whether oncogenes that are prevalent in human cancers suppress RhoB expression, and whether RhoB antagonizes the ability of these oncogenes to induce malignant transformation. To this end, the effects of several oncogenes on RhoB promoter transcriptional activity were first evaluated. NIH3T3 cells and human cancer cell lines derived from lung (A-549), pancreatic (Panc-1) and cervical (C33A) tumors were transiently transfected with pcDNA3 empty vectors or pcDNA3 constructs containing various oncogenes along with full length RhoB promoter firefly luciferase reporter and SRE-renilla luciferase reporter as well as a β-gal reporter for controlling transfection efficiency as described in the Materials and Methods section.

RhoB protein levels = assay: RhoB protein level by Western blotting in PANC-1 cells; format: cell-based, human; settings: treated 48 hours (FIG. 7E)
Description: H-Ras/3T3 cells were treated with (FIG. 7A) different concentrations of LY294002 for 48 hrs or (FIG. 7B) LY294002 (20 μM) for different time intervals. The cells were then lysed and analyzed for RhoB and RhoA protein levels by Western Blotting with anti-RhoB and anti-RhoA; the same filter was re-probed with antiβ-actin for loading control. NIH3T3 cells (FIG. 7C) were transiently transfected with various genes as indicated for 24 hours; and then treated with either DMSO vehicle or LY294002 or 5-FU alone or in combination for another 48 hours. The cells were analyzed for RhoB, RhoA, and β-actin protein levels as described above. […] The cells were analyzed for RhoB and RhoA protein levels by Western Blotting with anti-RhoB and anti-RhoA; the same filter was re-probed with anti-β-actin, anti-HA and anti-pan-Akt antibodies. PANC-1 cells (FIG. 7E) and A549 cells (FIG. 7F) were treated PD, LY or 5-FU as indicated for 48 hours; then analyzed for RhoB and RhoA protein levels by Western Blotting as described above.
Western Blot Analysis. […] Antigen-bound antibody was detected by enhanced chemiluminescence Western blotting kit ([…] […] BIOTECH), Piscataway, N.J.). β-actin was detected as an internal loading control.

NIH3T3 cells = assay: 5-FU-induced apoptosis (Annexin V, flow cytometry) in NIH3T3 cells; format: cell-based; settings: NIH3T3, transfected 24 hours then 5-FU 48 hours (FIG. 10A); control 28-30%
Description: Apoptosis Assay. Cells were collected by trypsinization, washed in wash buffer and stained with Annexin V and 7-AAD according to manufacturer's recommendation (PharMingen, San Diego, Calif.). Data acquisition and analysis was performed by the Flow Cytometry Core Facility at the H. Lee Moffitt Cancer Center (Tampa, Fla.). All the samples were performed in duplicate and a representative of 3 independent experiments were reported here.

RhoB promoter [3] = assay: RhoB promoter transcriptional activity (luciferase reporter) in NIH3T3 cells; format: cell-based
From the text: Gene Constructs and RhoB Promoter Transcriptional Activity Assay. Constitutively active H-Ras61L, K-RasV12, N-RasV12, and dominant negative […]-Ras were kind gifts from Dr. Channing Der (University of North Carolina) (Khosravi-Far, R. et al., Mol Cell Biol, 1995, 15:6443-53; Quilliam, L. A. et al., Mol Cell Biol, 1994, 14:1113-21). Wild-type RhoA and RhoB were subcloned into hemaglutinin (HA)-tagged pcDNA3 (INVITROGEN). The orientation and the sequences of these genes were confirmed by DNA sequencing facilities at the H. Lee Moffitt Cancer Center, Tampa, Fla. RhoB promoter construct pGEI was kindly provided by Dr Y. Monden (Banyu Tsukuba Research, Japan) (Nakamura et al., 1996). pCMV-β-galactosidase vector was purchased from INVITROGEN. The plasmid containing CA-, DN-PI3K, Mek and Akt were kindly provided by Dr. Julie Y. Djeu (H. Lee Moffitt Cancer and Research Institute, Tampa, Fla.) (Jiang, K. et al., Blood, 2003, 101:236-44). β-galactosidase activity and luciferase assay kits were purchased from PROMEGA Corporation, Madison, Wis. The serum response element (SRE) reporter was provided by Dr. Richard Jove, H. Lee Moffitt Cancer and Research Institute, Tampa, Fla. (Turkson, J. et al., Mol Cell Biol, 1999, 19:7519-28). […] Richard Jove, Oncology program, H. Lee Moffitt Cancer and Research Institute, Tampa, Fla. (Turkson, J. et al., Mol Cell Biol, 1999, 19:7519-28). […] (Luetteke, N. C. et al., Genes Dev, 1994, 8:399-413). DNA transfection was performed with the standard lipofectamine protocol (INVITROGEN). […] After transfection the cells were grown for another 36-48 h. Cells were then washed twice with PBS and lyzed in Promega Passive Lysis Buffer. Aliquots of the lysates were then used to measure the luciferase and β-galactosidase activities. The luciferase values were first divided by β-galactosidase values. The RhoB promoter transcriptional activity was determined by dividing the luciferase/β-Gal values from oncogene-transfected cells by those from pcDNA3-transfected cells. […] All the samples were performed in triplicate and the averages of 3 independent experiments were reported here.

For `O=c1cc(N2CCOCC2)oc2c(-c3ccccc3)cccc12` [LY294002], the “induction of RhoB promoter activity” value (RhoB promoter [1]) was 1.7 fold, the “5-FU induction of RhoB promoter activity” value (RhoB promoter [2]; PANC-1 and A-549 cells expressing mutated K-Ras) was “sensitize these cells to 5-FU induction of RhoB promoter activity” and the “induction of RhoB protein levels” value (RhoB protein levels) was 8 fold.

With `COc1cccc(-c2cc(=O)c3ccccc3o2)c1N` [PD98059] the “induction of RhoB protein levels” value (RhoB protein levels) was “no induction”.

In the case of “Akt: Akt expression construct transfected into NIH3T3 cells”, the “5-FU apoptotic rate after transfection” value (NIH3T3 cells) is reported as 17%.

In the case of ErbB2: human ErbB2 cDNA construct, the “RhoB Promoter transcriptional activity (% inhibition)” value (RhoB promoter [2]; A549, transiently transfected 36 hrs) is reported as 74 ± 4.3%, the “RhoB Promoter transcriptional activity (% inhibition)” value (RhoB promoter [2]; C33A, transiently transfected 36 hrs) is reported as 69 ± 3.6% and the “RhoB Promoter transcriptional activity (% inhibition)” value (RhoB promoter [2]; PANC1, transiently transfected 36 hrs) is reported as 68 ± 4.1%. For the same compound, the “inhibition of RhoB promoter activity” value (RhoB promoter [3]; NIH3T3, in the presence of N17-H-Ras) was 18% and the “RhoB Promoter transcriptional activity (% inhibition)” value (RhoB promoter [3]; NIH3T3, transiently transfected 36 hrs, vs pcDNA3 control) was 79 ± 3.9%.

Source: US7629310B2, “RhoB as a suppressor of cancer cell growth, cell transformation, and metastasis” (University of South Florida, priority 2000, dated 2009)
